Laboratory results published in US20020028807A1, “Non-nucleoside reverse transcriptase inhibitors” (priority 2000, published 2002).

Assays:
[1] = test system: HIV coding for mutant reverse transcriptase K103N; experiment: ELISA (p24) assay of HIV replication in C8166 cell culture, K103N virus; format: cell-based, HIV-1; details: Human immunodeficiency virus 1, C8166, 72 h, read-out: EC50 K103N
Method: (§1) Compounds of the invention were tested for their ability to inhibit HIV replication in cell culture in a 96-well plate assay. Complete RPMI 1640, consisting of RPMI 1640+10% fetal bovine serum, 10 μg/ml gentamycin and 10 μM β-mercaptoethanol was used for dilution of the compound as well as cell growth medium. The T lymphocyte cell line C8166 was infected at a multiplicity of infection of 0.001 with viruses coding for wild-type and mutant reverse transcriptase. Cells were then incubated for three days in the presence of serial dilutions of the compounds of the invention. The supernatant was pooled from eight replica wells and the concentration of extracellular p24 was determined using a commercially available HIV-1 p24 antigen assay kit (Beckman-Coulter®). The level of inhibition (% inhibition) was calculated with the following equation: [formula]

[2] = target: T1, HIV-1 RT P23L (Human immunodeficiency virus type 1 group M subtype B, UniProt P03366, P835L); experiment: Reverse transcriptase (RT) assay, P23L mutant; format: biochemical
T1 construct: an HIV RT clone pKRT2 containing only the RT p66 gene regulated by the lac operon/trc promoter; made in house; host or cells: E. coli JM109, vector pKK233-2
Description: Among the enzymes for which Human Immunodeficiency Virus (HIV-1) encodes is a reverse transcriptase (1), so-named because it transcribes a DNA copy from an RNA template. This activity can be quantitatively measured in a cell-free enzyme assay and is based upon the observation that reverse transcriptase is able to use a synthetic template poly r(C) primed with a biotinylated oligo d(G) to transcribe a radio-labelled DNA strand utilising 3H-dGTP as a substrate. The assay described below utilises the wild-type enzyme (which is the predominant form of the enzyme observed in patients infected with HIV-1) and can also be used with mutant RT enzymes (for example, Y181C, prepared by site-directed mutagenesis in which the tyrosine residue at codon 181 has been replaced by a cysteine residue) in analogous assay conditions. This assay allows compounds to be evaluated for their effectiveness at inhibiting the mutant enzymes.
Some HIV-1 IIIB clone BH10 RT mutants were provided by Dr. C.-K. Shih (Boehringer Ingelheim Pharmaceutials Inc., U.S.A.) in the vector pKK233-2 (Pharmacia). Briefly an HIV RT clone pKRT2 containing only the RT p66 gene regulated by the lac operon/trc promoter was obtained from Dr. W. Summers (Yale University) (2). A variety of specific amino acid substitutions were introduced into the wild-type RT gene by site-directed mutagenesis. RT clones were subcloned into the pKK233-2 bacterial expression vector. Clones provided included wild-type, Val106Ala, Tyr181Cys, Tyr188Cys, Tyr188Leu, Gly190Ala and Pro236Leu. Others were made in-house by site-directed mutagenesis of the pKK233-2 RT clones including Lys103Asn, Lys103Asn/Tyr181Cys, Lys103Asn/Leu100Ile, Lys103Asn/Pro225His, and Lys103Asn/Val108Ile.
Purification of recombinant reverse transcriptase was performed using a combination of methods previously described (3). A single colony from a fresh plate of transformed JM109 cells was used to initiate growth of a pre-culture grown o/n at 37° C. Two liters of growth medium were inoculated with this pre-culture. At OD600˜1.5 (5-6 h at 37° C.), RT gene expression was induced with IPTG (1 mM final), and the fermentation was continued for a few more hours at 37° C. After centrifugation, supernatants were discarded while cell pellets were pooled and stored at −80° C. until purification. Cells were thawed at 4° C. overnight and suspended in lysis buffer (MES 50 mM pH 6, EDTA 1 mM, 10% v/v glyerol, 0.02% w/v OBG, 0.02% w/v sodium azide). Lysozyme was added and the mixture was incubated on ice for 40 minutes. After homogenization using a bounce in presence of lysozyme and sonication, the cells were centrifuged for 30 minutes. Supernatant (S1) was saved and stored at 4° C. […]

[3] = test system: HIV coding for mutant reverse transcriptase V106A; experiment: ELISA (p24) assay of HIV replication in C8166 cell culture, V106A virus; format: cell-based, HIV-1; details: Human immunodeficiency virus 1, C8166, 72 h, read-out: EC50 V106A
Method: as §1

| SMILES | EC50 [1] | IC50 [2] | EC50 [3] |
| --- | --- | --- | --- |
| CCN1c2ncc(CCOc3cc[n+]([O-])c4ccccc34)cc2C(=O)N(C)c2ccc(F)nc21 [compound 11, 5,11-Dihydro-11-ethyl-2-fluoro-5-methyl-8-{2-{(1-oxido-4-quinolinyl)oxy}-ethyl}-6H-dipyrido[3,2-b:2′,3′-e][1,4]diazepin-6-one] | 0.002 µM | 0.056 µM | 0.028 µM |
| CCN1c2ncc(CCOc3cc[n+]([O-])c4ccccc34)cc2C(=O)N(C)c2ccc(Cl)nc21 [compound 17, 2-Chloro-5,11-dihydro-11-ethyl-5-methyl-8-{2-{(1-oxido-4-quinolinyl)oxy}-ethyl}-6H-dipyrido[3,2-b:2′,3′-e][1,4]diazepin-6-one] | 0.0015 µM | 0.06 µM | 0.024 µM |
| CCN1c2ncc(CCOc3cc[n+]([O-])c4ccccc34)cc2C(=O)N(C)c2cccnc21 [compound 21, 5,11-Dihydro-11-ethyl-5-methyl-8-{2-{(1-oxido-4-quinolinyl)oxy}ethyl}-6H-dipyrido[3,2-b:2′,3′-e][1,4]diazepin-6-one] | 0.0035 µM | 0.129 µM | 0.065 µM |
